Measured values published in patent publication US11225505B2, “Antimicrobial polymyxin derivative compounds” (MONASH UNIVERSITY, priority 2015, dated 2022).
In brackets after ≈: the same amount, converted by molar mass. Like-named read-outs stand apart in the source and are kept apart here. Where a SMILES comes first, the peptide text is derived from it. Bridges are numbered along the chain shown (N, C = ends). [ ]: non-standard residue; d: D form. The star is where a group is joined. X51 = O=C(c1cc(Cl)nc(Cl)c1)*; X48 = O=C(c1ccc(Cl)nc1)*; Dab = NCC[C@H](N)C(=O)O; X70 = O=C(c1csc(Br)c1)*; Abu = CC[C@H](N)C(=O)O; Dap = NC[C@H](N)C(=O)O

Tests used:
[1] = tested on: Acinetobacter baumannii ATCC 17978; type: cell-based
Method in brief: (§1)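 Lipopeptides (TFA salts) tested against Gram-negative strains by CLSI broth microdilution using cation-adjusted Mueller-Hinton broth; MIC recorded, polymyxin B sulphate as control.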

[2] = tested on: Acinetobacter baumannii FADDI-AB034; type: cell-based
Method in brief: as §1

[3] = tested on: Enterobacter cloacae FADDI-EC001; type: cell-based
Method in brief: (§2)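 The read-out is the MIC, obtained by CLSI broth microdilution (M100-S24) in cation-adjusted Mueller-Hinton broth. The compounds were lipopeptide TFA salts, and polymyxin B sulphate served as control.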

[4] = tested on: Enterobacter cloacae FADDI-EC003; type: cell-based
Method in brief: as §1

[5] = tested on: Enterobacter cloacae FADDI-EC006; type: cell-based
Method in brief: as §1

[6] = tested on: Klebsiella pneumoniae FADDI-KP022; type: cell-based
Method in brief: as §1

[7] = tested on: Klebsiella pneumoniae FADDI-KP032; type: cell-based
Method in brief: as §1

[8] = tested on: Klebsiella pneumoniae Kp BM1; type: cell-based
Method in brief: as §2

[9] = tested on: Pseudomonas aeruginosa ATCC 27853; type: cell-based
Method in brief: as §1

[10] = tested on: Pseudomonas aeruginosa FADDI-PA01; type: cell-based
Method in brief: as §1

[11] = tested on: Pseudomonas aeruginosa FADDI-PA022; type: cell-based
Method in brief: as §1

[12] = tested on: Pseudomonas aeruginosa FADDI-PA038; type: cell-based
Method in brief: as §1

[13] = tested on: Acinetobacter baumannii FADDI-AB030; experiment: microbe, parasite or virus in culture; type: cell-based
Method in brief: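 Lipopeptide TFA salts tested against the multidrug-resistant clinical isolate by CLSI (M100-S24) broth microdilution in cation-adjusted Mueller-Hinton broth, with polymyxin B sulphate as control; MIC read.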

mouse kidney = experiment: Nephrotoxicity in a mouse model (kidney histology); type: in vivo; conditions: mice (n=3), subcutaneous 12 mg/kg free base every 2 h, 6 doses in one day; for Max Overall Kidney Histological Score: kidney ~20 h after last dose; for Max Kidney Histological Score: semiquantitative score 0 to +5
Description: Polymyxin B sulphate and colistin sulphate were supplied by Betapharma (Shanghai Co., Ltd, China). Stock solutions of compounds in saline (5 mg base/mL) were stored at 4° C. before use. Mice (n=3) were subcutaneously administered with the compound at 12 mg/kg of the free base form every 2 h, 6 doses in one day. At approximately 20 h after the last dose, mice were euthanised by inhalation of an overdose of isoflurane. Immediately after blood sampling, the right kidney from each mouse was collected immediately and placed in 10% formalin in 5 mL plastic tubes and the left kidney placed in a pre-weighed 14 mL plastic tubes, weighed again and stored at −20° C. pending homogenization and analysis of polymyxin B and colistin. The frozen kidney samples were thawed, homogenized in 2 mL of Milli-Q water and stored in a −20° C. freezer. The formalin-fixed kidneys were then sent to the Australian Phenomics Network-Histopathology and Organ Pathology (The University of Melbourne, Parkville, Australia) for histological examination. Samples were examined by a pathologist who was blind to the treatment groups.
Lesions were rated as follows: mild acute tubular damage with tubular dilation, prominent nuclei and a few pale tubular casts (Grade 1); severe acute tubular damage with necrosis of tubular epithelial cells and numerous tubular casts (Grade 2); acute cortical necrosis/infarction of tubules and glomeruli with or without papillary necrosis (Grade 3). The grades were given the following scores: grade 1=1, grade 2=4, and grade 3=10. The percentage of area of the kidney slice showing histological damage was scored as follows: <1%=0, 1 to <5%=1, 5 to <10%=2, 10 to <20%=3, 20 to <30%=4, 30 to <40%=5, and >40%=6. The overall kidney histological score was calculated as the product of the percentage score and grade score. These scores were then expressed as a semiquantitative score (Kidney Histological Score) on a scale of 0 to +5 for renal histological changes. These scores were assigned as follows: SQS 0=no significant change (overall score, <1); SQS +1=mild damage (overall score, 1 to <15); SQS +2=mild to moderate damage (overall score, 15 to <30); SQS +3=moderate damage (overall score, 30 to <45); SQS +4=moderate to severe damage (overall score, 45 to <60); and SQS +5=severe damage (overall score, ≥60) (Yousef, J., et al., (2011) Antimicrob. Agents and Chemother. 55 (9), 4044-4049).
Any compound with a kidney histological score of ≤+1.0 is considered to have a low nephrotoxicity in this model.

## CC[C@@H]1NC(=O)[C@@H](CC(C)C)NC(=O)[C@H](CCN)NC(=O)[C@@H](NC(=O)[C@H](CN)NC(=O)[C@@H](NC(=O)[C@H](CCN)NC(=O)c2ccc(Cl)nc2)[C@@H](C)O)CCNC(=O)[C@H]([C@@H](C)O)NC(=O)[C@H](CCN)NC(=O)[C@H](CCN)NC1=O [Compound 4] (X48-[Dab]T[Dap][Dab][Dab][dL][Abu][Dab][Dab]T; lactam 4-C)
[1]; A. baumannii ATCC 17978, CAMHB broth microdilution
  Minimum inhibitory concentration: 1 mg/L (≈ 0.888 µM)
[2]; A. baumannii FADDI-AB034, CAMHB broth microdilution
  Minimum inhibitory concentration: 1 mg/L (≈ 0.888 µM)
[3]; E. cloacae FADDI-EC001, CAMHB broth microdilution
  Minimum inhibitory concentration: 2 mg/L (≈ 1.78 µM)
[4]; E. cloacae FADDI-EC003, CAMHB broth microdilution
  Minimum inhibitory concentration: 0.5 mg/L (≈ 0.444 µM)
[5]; E. cloacae FADDI-EC006, CAMHB broth microdilution
  Minimum inhibitory concentration: 4 mg/L (≈ 3.55 µM)
[6]; K. pneumoniae FADDI-KP022, CAMHB broth microdilution
  Minimum inhibitory concentration: 0.5 mg/L (≈ 0.444 µM)
[7]; K. pneumoniae FADDI-KP032, CAMHB broth microdilution
  Minimum inhibitory concentration: 1 mg/L (≈ 0.888 µM)
[8]; K. pneumoniae Kp BM1, CAMHB broth microdilution
  Minimum inhibitory concentration: 2 mg/L (≈ 1.78 µM)
[9]; P. aeruginosa ATCC 27853, CAMHB broth microdilution
  Minimum inhibitory concentration: 0.5 mg/L (≈ 0.444 µM)
[10]; P. aeruginosa FADDI-PA01, CAMHB broth microdilution
  Minimum inhibitory concentration: 0.5 mg/L (≈ 0.444 µM)
[11]; P. aeruginosa FADDI-PA022, CAMHB broth microdilution
  Minimum inhibitory concentration: 1 mg/L (≈ 0.888 µM)
[12]; P. aeruginosa FADDI-PA038, CAMHB broth microdilution
  Minimum inhibitory concentration: 1 mg/L (≈ 0.888 µM)
[13]; A. baumannii FADDI-AB030, CAMHB broth microdilution
  Minimum inhibitory concentration: 2 mg/L (≈ 1.78 µM)
Mouse kidney
  Max Overall Kidney Histological Score: 0.0
  Max Kidney Histological Score: 0 (SQS 0=no significant change (overall score, <1))

## CC[C@@H]1NC(=O)[C@@H](CC(C)C)NC(=O)[C@H](CCN)NC(=O)[C@@H](NC(=O)[C@H](CN)NC(=O)[C@@H](NC(=O)[C@H](CCN)NC(=O)c2cc(Cl)nc(Cl)c2)[C@@H](C)O)CCNC(=O)[C@H]([C@@H](C)O)NC(=O)[C@H](CCN)NC(=O)[C@H](CCN)NC1=O [Compound 19] (X51-[Dab]T[Dap][Dab][Dab][dL][Abu][Dab][Dab]T; lactam 4-C)
Mouse kidney
  Max Overall Kidney Histological Score: 0.0
  Max Kidney Histological Score: 0 (SQS 0=no significant change (overall score, <1))

## CC[C@@H]1NC(=O)[C@@H](CC(C)C)NC(=O)[C@H](CCN)NC(=O)[C@@H](NC(=O)[C@H](CN)NC(=O)[C@@H](NC(=O)[C@H](CCN)NC(=O)c2csc(Br)c2)[C@@H](C)O)CCNC(=O)[C@H]([C@@H](C)O)NC(=O)[C@H](CCN)NC(=O)[C@H](CCN)NC1=O [Compound 101] (X70-[Dab]T[Dap][Dab][Dab][dL][Abu][Dab][Dab]T; lactam 4-C)
[1]; ATCC 17978
  Minimum inhibitory concentration: 0.5 mg/L (≈ 0.425 µM)
[2]; FADDI-AB034
  Minimum inhibitory concentration: 0.5 mg/L (≈ 0.425 µM)
[3]; FADDI-EC001
  Minimum inhibitory concentration: 0.5 mg/L (≈ 0.425 µM)
[4]; FADDI-EC003
  Minimum inhibitory concentration: 0.5 mg/L (≈ 0.425 µM)
[5]; FADDI-EC006
  Minimum inhibitory concentration: 0.5 mg/L (≈ 0.425 µM)
[6]; FADDI-KP022
  Minimum inhibitory concentration: 1 mg/L (≈ 0.85 µM)
[7]; FADDI-KP032
  Minimum inhibitory concentration: 0.5 mg/L (≈ 0.425 µM)
[8]; Kp BM1
  Minimum inhibitory concentration: 0.5 mg/L (≈ 0.425 µM)
[9]; ATCC 27853
  Minimum inhibitory concentration: 0.25 mg/L (≈ 0.213 µM)
[10]; FADDI-
  Minimum inhibitory concentration: 0.25 mg/L (≈ 0.213 µM)
[11]; FADDI-PA022
  Minimum inhibitory concentration: 0.25 mg/L (≈ 0.213 µM)
[12]; FADDI-PA038
  Minimum inhibitory concentration: 0.5 mg/L (≈ 0.425 µM)
[13]; FADDI-AB030
  Minimum inhibitory concentration: 0.5 mg/L (≈ 0.425 µM)
